From paper PMC10366214, “The anti-Alzheimer potential of novel spiroindolin-1,2-diazepine derivatives as targeted cholinesterase inhibitors with modified substituents” (Scientific Reports, 2023)
Entries after “also recorded” stand apart in the source; their conditions may differ.

Key:
[1] = biological target: T1, AChE (Homo sapiens, UniProt P22303); assay: biochemical
Experimental: (§1) Cholinesterase inhibitory activities of all analogs were evaluated spectrometrically using the modified Ellman method as previously reported[40],[41]. […] The absorbance of each well was measured at 415 nm using a microplate reader. IC50 values and inhibition values were calculated with the software GraphPad Prism as the mean of three independent experiments and are expressed as mean ± SEM.

[2] = biological target: BChE (Homo sapiens, UniProt P06276); assay: BChE inhibition, modified Ellman method; format: biochemical
BChE, sequence (P06276 29-602): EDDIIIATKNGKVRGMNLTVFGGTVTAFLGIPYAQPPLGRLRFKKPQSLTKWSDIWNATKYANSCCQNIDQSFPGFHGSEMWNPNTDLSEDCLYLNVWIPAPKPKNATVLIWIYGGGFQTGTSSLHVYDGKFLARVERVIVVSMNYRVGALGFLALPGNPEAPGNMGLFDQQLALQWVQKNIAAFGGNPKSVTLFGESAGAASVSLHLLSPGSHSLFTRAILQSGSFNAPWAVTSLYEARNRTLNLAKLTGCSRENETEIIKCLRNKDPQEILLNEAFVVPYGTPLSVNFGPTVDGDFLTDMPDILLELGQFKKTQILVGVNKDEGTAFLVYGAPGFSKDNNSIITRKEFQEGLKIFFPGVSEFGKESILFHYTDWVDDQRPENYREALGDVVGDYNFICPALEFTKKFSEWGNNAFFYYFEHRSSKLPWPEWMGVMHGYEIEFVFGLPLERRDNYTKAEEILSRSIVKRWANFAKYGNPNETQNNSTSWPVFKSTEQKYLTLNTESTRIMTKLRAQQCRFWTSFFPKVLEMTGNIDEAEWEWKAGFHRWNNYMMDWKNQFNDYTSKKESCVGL
Experimental: as §1

[3] = test system: SH-SY5Y neuroblastoma cell line; assay: MTT toxicity assay on SH-SY5Y; format: cell-based; conditions: 72 h exposure; tested concentrations up to 50 µM
Experimental: SH-SY5Y cells were maintained in Dulbecco's modified Eagle medium with Ham's F12 medium (DMEM/F12) containing 15% fetal bovine serum100 units/ml penicillin and 100 µg/ml streptomycin. Cells were seeded into flasks containing supplemented medium and maintained at 37 °C in a humidified atmosphere of 5% CO2 and 95% air. Cell viability, virtually the mitochondrial activity of living cells, was measured by quantitative colorimetric assay with MTT, as described previously. MTT reagent, at a final concentration of 0.5 mg/ml, was added to each well at the end of the incubation period, and the plate was placed in a humidified incubator for an additional two h periods. Metabolically active cells convert the yellow MTT tetrazolium compound to a purple formazan product. Then, the insoluble formazan was dissolved with dimethylsulfoxide; colorimetric determination of MTT reduction was measured at 540 nm. Control cells treated media were taken as 100% viability.

[4] = biological target: T1, AChE; assay: Enzyme kinetic study of AChE inhibition (Lineweaver-Burk, Ellman's method); format: biochemical
Experimental: As previously reported, the kinetic study of AChE was carried out at five different concentrations of compound 5l and acetylthiocholine substrate (0.1–1 mM) by Ellman's method.

T1 sequence (P22303 32-614): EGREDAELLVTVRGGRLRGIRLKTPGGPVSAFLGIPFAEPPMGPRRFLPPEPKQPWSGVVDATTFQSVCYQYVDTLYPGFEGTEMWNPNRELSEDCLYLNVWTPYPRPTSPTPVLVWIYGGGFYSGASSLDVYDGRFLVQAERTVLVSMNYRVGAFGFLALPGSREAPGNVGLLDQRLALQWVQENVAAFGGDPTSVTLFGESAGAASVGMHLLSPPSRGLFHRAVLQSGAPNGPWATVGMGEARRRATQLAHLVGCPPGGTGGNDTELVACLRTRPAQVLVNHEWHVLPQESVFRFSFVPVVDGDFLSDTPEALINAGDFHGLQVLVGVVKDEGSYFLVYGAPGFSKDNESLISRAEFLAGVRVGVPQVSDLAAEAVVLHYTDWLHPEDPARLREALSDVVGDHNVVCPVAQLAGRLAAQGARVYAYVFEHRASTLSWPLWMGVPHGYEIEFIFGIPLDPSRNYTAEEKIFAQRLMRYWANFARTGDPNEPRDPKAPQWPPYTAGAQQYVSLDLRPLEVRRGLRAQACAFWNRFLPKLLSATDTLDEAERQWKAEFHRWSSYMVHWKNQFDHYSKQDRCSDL

N#CC1=C(N)NNC(Nc2ccc(O)cc2)=C([N+](=O)[O-])C12C(=O)Nc1ccc([N+](=O)[O-])cc12 (stereo not shown) [Compound 5l, 3-amino-7-((4-hydroxyphenyl)amino)-5',6-dinitro-2'-oxo-1,2-dihydrospiro[[1,2]diazepine-5,3'-indoline]-4-carbonitrile] was tested, and the IC50 [1] was 3.98 ± 1.07 µM, the inhibition at 50 µM ([1]; read-out: AChE % inhibition at 50 µM) was 87.4 ± 5.93% and the “inhibition against BChE (in words)” value [2] was “no significant inhibition; also recorded: inactive”. For the same compound, the inhibition at 50 µM ([2]; read-out: BChE % inhibition at 50 µM) was 5.71 ± 2.82%, the “toxicity against SH-SY5Y (MTT cell viability)” value [3] was “no toxicity; also recorded: did not show neurotoxicity” and the “mode of AChE inhibition” value ([4]; Lineweaver-Burk plot) was “mixed mode; also recorded: mix type inhibitor; also recorded: mix-type inhibition”. It also gave a Ki ([4]; five inhibitor concentrations (1, 4, 8, 12, 24 µM), acetylthiocholine 0.1-1 mM, read-out: inhibition constant Ki against AChE) of 0.044 µM.
